The text below walks through data of patent publication US7217734B2, “Substituted benzopyrans as selective estrogen receptor-beta agonists” (Eli Lilly and Company, priority 2001, dated 2007).

The target of this experiment is T1, ERbeta Receptor (Homo sapiens, UniProt Q92731).
T1 construct: purchased Pan Vera
T1 sequence (Q92731 whole entry): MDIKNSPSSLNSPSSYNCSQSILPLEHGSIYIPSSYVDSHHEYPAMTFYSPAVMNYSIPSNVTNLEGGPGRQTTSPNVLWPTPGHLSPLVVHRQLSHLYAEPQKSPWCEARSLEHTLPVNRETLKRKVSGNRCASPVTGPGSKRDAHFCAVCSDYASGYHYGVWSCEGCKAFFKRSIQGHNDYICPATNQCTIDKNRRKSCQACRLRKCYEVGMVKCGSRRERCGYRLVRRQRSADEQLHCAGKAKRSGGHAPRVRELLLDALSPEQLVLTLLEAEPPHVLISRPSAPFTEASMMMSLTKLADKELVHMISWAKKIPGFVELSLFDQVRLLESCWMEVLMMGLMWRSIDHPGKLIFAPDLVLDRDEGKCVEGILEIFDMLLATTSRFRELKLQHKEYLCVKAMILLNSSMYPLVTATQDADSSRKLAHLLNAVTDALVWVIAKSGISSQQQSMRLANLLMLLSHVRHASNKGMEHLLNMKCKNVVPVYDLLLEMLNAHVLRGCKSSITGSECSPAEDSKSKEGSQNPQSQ
The experiment can be described thus: Competition ER binding assay (3H-Estradiol), ER beta. The note with it: ratio of Ki ER alpha to Ki ER beta; Ki from IC50 by Cheng-Prusoff equation. As for the experimental part: The competition ER binding assay was run in a buffer containing 50 mM N-[2-hydroxyethyl]piperazine-N′-[2-ethanesulfonic acid (Hepes) pH 7.5, 1.5 mM EDTA, 150 mM NaCl, 10% glycerol, 1 mg/mL ovalbumin, 5 mM DTT, 0.025 μCi per well of ^3H-Estradiol (NEN #NET517 at 118 Ci/mmol, 1 mCi/mL), and 10 ng/well ERAlpha or ERbeta Receptor (Pan Vera). Competing compounds were added at 10 different concentrations. Non-specific binding was determined in the presence of 1 μM of E2 (17-β Estradiol, Sigma, St. Louis, Mo.). The binding reaction (140 μL) was incubated for 4 hours at room temperature, then 70 μL of cold dextran coated charcoal (DCC) buffer was added to each reaction (DCC buffer was prepared by adding 0.75 g of charcoal [Sigma] and 0.25 g of dextran [Pharmacia] per 50 mL of assay buffer). The incubation plates were mixed for 8 minutes on an orbital shaker at 4° C. and then centrifuged at 3,000 rpm for 10 minutes at 4° C. An aliquot of 120 μl of the mix was transferred to another 96-well, white flat bottom plate (Costar) and 175 μl of Wallac Optiphase Hisafe 3 scintillation fluid was added to each well. The plates were sealed and then shaken vigorously on an orbital shaker. After an incubation of 2.5 hrs, the radioactivity was counted in a Wallac Microbeta counter. […] The Kd for ^3H-Estradiol was determined by saturation binding to ERα and ERβ receptors. The IC50 values for compounds were converted to Ki values using the Cheng-Prusoff equation and the Kd values were determined by saturation binding assay.
Regarding `Oc1ccc([C@@H]2Oc3ccc(O)cc3[C@H]3CCC[C@H]32)cc1` (racemic) [Example 16, (^+)-2-(4-hydroxyphenyl)-6-hydroxy-cyclopentyl[c]3,4-dihydro-2H-1-benzopyran], the “Ki (nM) ER alpha/Ki (nM) ER beta” value is on record as 1.4.

Turning to `CC[C@]1(c2ccc(O)cc2)Oc2ccc(O)cc2[C@@H]2CCC[C@@H]21` [Example 29, (^+)-2-ethyl-2-(4-hydroxyphenyl)-6-hydroxy-cyclopentyl[c]3,4-dihydro-2H-1-benzopyran], the “Ki (nM) ER alpha/Ki (nM) ER beta” value is listed as 1.3.

As to `COc1ccc2c(c1)[C@H]1CCC[C@H]1[C@@H](c1ccc(O)cc1)O2` (racemic) [Example 12, (^+)-2-(4-hydroxyphenyl)-6-methoxy-cyclopentyl[c]3,4-dihydro-2H-1-benzopyran], the “Ki (nM) ER alpha/Ki (nM) ER beta” value was 2.3.

`Cc1cc([C@@H]2Oc3ccc(O)cc3[C@H]3CCC[C@H]32)ccc1O` (racemic) [Example 14, (^+)-2-(4-hydroxy-3-methylphenyl)-6-hydroxy-cyclopentyl[c]3,4-dihydro-2H-1-benzopyran]: the “Ki (nM) ER alpha/Ki (nM) ER beta” value was 2.6.

In the case of `Cc1cc2c(cc1O)[C@H]1CCC[C@H]1[C@H](c1ccc(O)cc1)O2` (racemic) [Example 20, (^+)-2-(4-hydroxyphenyl)-6-hydroxy-7-methyl-cyclopentyl[c]3,4-dihydro-2H-1-benzopyran], the “Ki (nM) ER alpha/Ki (nM) ER beta” value stood at 0.6.

As for `Cc1ccc2c(c1)[C@H]1CCC[C@H]1[C@@H](c1ccc(O)cc1)O2` (racemic) [Example 3, (^+)-2-(4-hydroxyphenyl)-6-methyl-cyclopentyl[c]3,4-dihydro-2H-1-benzopyran], the “Ki (nM) ER alpha/Ki (nM) ER beta” value is 1.2.

For `Cc1cc(O)cc2c1O[C@H](c1ccc(O)cc1)[C@@H]1CCC[C@H]21` (racemic) [Example 7, (^+)-2-(4-hydroxyphenyl)-6-hydroxy-8-meth 1-cyclopentyl[c]3,4-dihydro-2H-1-benzopyran], the “Ki (nM) ER alpha/Ki (nM) ER beta” value was 5.1.

Turning to `CCC1(CC)CC[C@H]2[C@@H](c3ccc(O)cc3)Oc3ccc(O)cc3[C@H]21` (racemic) [Example 11, (^+)-2-(4-hydroxyphenyl)-6-hydroxy-11,11-diethyl-cyclopentyl[c]3,4-dihydro-2H-1-benzopyran], the “Ki (nM) ER alpha/Ki (nM) ER beta” value was 1.6.

Consider `Oc1ccc([C@H]2Oc3ccc(C(F)(F)F)cc3[C@H]3CCC[C@H]32)cc1` (racemic) [Example 2, (^+)-2-(4-hydroxyphenyl)-6-trifluoromethyl-cyclopentyl[c]3,4-dihydro-2H-1-benzopyran], for which the “Ki (nM) ER alpha/Ki (nM) ER beta” value was 1.4.

As for `COc1cc(O)cc2c1O[C@H](c1ccc(O)cc1)[C@@H]1CCC[C@H]21` (racemic) [Example 9, (^+)-2-(4-hydroxyphenyl)-6-hydroxy-8-methoxy-cyclopentyl[c]3,4-dihydro-2H-1-benzopyran], the “Ki (nM) ER alpha/Ki (nM) ER beta” value was 13.

As for `Oc1ccc([C@H]2Oc3ccc(O)cc3[C@H]3CCC[C@H]32)cc1` (racemic) [Example 1, (^+)-2-(4-hydroxyphenyl)-6-hydroxy-cyclopentyl[c]3,4-dihydro-2H-1-benzopyran], the “Ki (nM) ER alpha/Ki (nM) ER beta” value was found to be 8.0.

For `Cc1cc(O)ccc1[C@H]1Oc2ccc(O)cc2[C@H]2CCC[C@H]21` (racemic) [Example 15, (^+)-2-(2-methyl-4-hydroxyphenyl)-6-hydroxy-cyclopentyl[c]3,4-dihydro-2H-1-benzopyran], the “Ki (nM) ER alpha/Ki (nM) ER beta” value is listed as 11.

In the case of `CC(C)[C@]1(c2ccc(O)cc2)Oc2ccc(O)cc2[C@@H]2CCC[C@@H]21` [Example 30, (+)-2-(1-methylethyl)-2-(4-hydroxyphenyl)-6-hydroxy-cyclopentyl[c]3,4-dihydro-2H-1-benzopyran], the “Ki (nM) ER alpha/Ki (nM) ER beta” value turned out to be 1.4.

Consider `C[C@]1(c2ccc(O)cc2)Oc2ccc(O)cc2[C@@H]2CCC[C@@H]21` [Example 28, (^+)-2-methyl-2-(4-hydroxyphenyl)-6-hydroxy-cyclopentyl[c]3,4-dihydro-2H-1-benzopyran], for which the “Ki (nM) ER alpha/Ki (nM) ER beta” value came to 4.6.

Regarding `Cc1cc([C@H]2Oc3ccc(O)cc3[C@H]3CCC[C@H]32)ccc1O` (racemic) [Example 13, (^+)-2-(4-hydroxy-3-methylphenyl)-6-hydroxy-cyclopentyl[c]3,4-dihydro-2H-1-benzopyran], the “Ki (nM) ER alpha/Ki (nM) ER beta” value is on record as 4.4.

As to `CC1(C)CC[C@H]2[C@@H](c3ccc(O)cc3)Oc3ccc(O)cc3[C@H]21` (racemic) [Example 10, (^+)-2-(4-hydroxyphenyl)-6-hydroxy-11,11-dimethyl-cyclopentyl[c]3,4-dihydro-2H-1-benzopyran], the “Ki (nM) ER alpha/Ki (nM) ER beta” value is given as 2.5.

For the compound `Cc1cc2c(cc1O)[C@H]1CCC[C@H]1[C@@H](c1ccc(O)cc1)O2` (racemic) [Example 19, (^+)-2-(4-hydroxyphenyl)-6-hydroxy-7-methyl-cyclopentyl[c]3,4-dihydro-2H-1-benzopyran], the “Ki (nM) ER alpha/Ki (nM) ER beta” value is reported as 2.0.

With `Oc1ccc([C@H]2Oc3ccc(F)cc3[C@H]3CCC[C@H]32)cc1` (racemic) [Example 4, (^+)-2-(4-hydroxyphenyl)-6-fluoro-cyclopentyl[c]3,4-dihydro-2H-1-benzopyran], the “Ki (nM) ER alpha/Ki (nM) ER beta” value was found to be 4.7.
